Results taken from PMC8523698, “Preclinical characterization of an intravenous coronavirus 3CL protease inhibitor for the potential treatment of COVID19” (Nature Communications, 2021).
Converted amounts (≈) assume the structure as drawn. “And” between values parts separate entries of the source, which are not always exact repeats. Equal values may be shown once. Read-outs that look alike come from different tables or passages of the source.

What was measured:
CYP2C8 = biological target: T1, CYP2C8 (Homo sapiens, UniProt P10632); assay: Reversible CYP inhibition in human liver microsomes; settings: for activity at 0.01 µM / activity at 0.158 µM / activity at 0.398 µM / activity at 1 µM / activity at 15.8 µM / activity at 39.8 µM / activity at 100 µM: human, microsomes, pH 7.4, Percent of Control Activity
T1 sequence (P10632 1-490): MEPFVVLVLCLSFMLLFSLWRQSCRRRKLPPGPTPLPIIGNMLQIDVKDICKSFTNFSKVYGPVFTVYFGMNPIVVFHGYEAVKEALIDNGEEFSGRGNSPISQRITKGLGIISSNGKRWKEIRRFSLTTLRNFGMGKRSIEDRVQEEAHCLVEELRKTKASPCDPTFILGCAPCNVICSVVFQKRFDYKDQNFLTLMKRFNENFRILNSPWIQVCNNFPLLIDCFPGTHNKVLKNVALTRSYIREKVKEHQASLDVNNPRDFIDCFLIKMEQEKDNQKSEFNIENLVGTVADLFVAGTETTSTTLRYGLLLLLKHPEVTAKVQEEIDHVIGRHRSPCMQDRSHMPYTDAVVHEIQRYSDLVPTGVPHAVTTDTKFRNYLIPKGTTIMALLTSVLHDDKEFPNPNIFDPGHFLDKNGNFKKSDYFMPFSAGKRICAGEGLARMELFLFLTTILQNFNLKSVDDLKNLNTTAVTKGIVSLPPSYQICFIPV

[1] = Rat pharmacokinetic study; settings: for Vd: Vdss
hERG channel = hERG channel (Homo sapiens, UniProt Q12809); assay: hERG potassium channel current assay
hERG channel, sequence (Q12809 whole entry): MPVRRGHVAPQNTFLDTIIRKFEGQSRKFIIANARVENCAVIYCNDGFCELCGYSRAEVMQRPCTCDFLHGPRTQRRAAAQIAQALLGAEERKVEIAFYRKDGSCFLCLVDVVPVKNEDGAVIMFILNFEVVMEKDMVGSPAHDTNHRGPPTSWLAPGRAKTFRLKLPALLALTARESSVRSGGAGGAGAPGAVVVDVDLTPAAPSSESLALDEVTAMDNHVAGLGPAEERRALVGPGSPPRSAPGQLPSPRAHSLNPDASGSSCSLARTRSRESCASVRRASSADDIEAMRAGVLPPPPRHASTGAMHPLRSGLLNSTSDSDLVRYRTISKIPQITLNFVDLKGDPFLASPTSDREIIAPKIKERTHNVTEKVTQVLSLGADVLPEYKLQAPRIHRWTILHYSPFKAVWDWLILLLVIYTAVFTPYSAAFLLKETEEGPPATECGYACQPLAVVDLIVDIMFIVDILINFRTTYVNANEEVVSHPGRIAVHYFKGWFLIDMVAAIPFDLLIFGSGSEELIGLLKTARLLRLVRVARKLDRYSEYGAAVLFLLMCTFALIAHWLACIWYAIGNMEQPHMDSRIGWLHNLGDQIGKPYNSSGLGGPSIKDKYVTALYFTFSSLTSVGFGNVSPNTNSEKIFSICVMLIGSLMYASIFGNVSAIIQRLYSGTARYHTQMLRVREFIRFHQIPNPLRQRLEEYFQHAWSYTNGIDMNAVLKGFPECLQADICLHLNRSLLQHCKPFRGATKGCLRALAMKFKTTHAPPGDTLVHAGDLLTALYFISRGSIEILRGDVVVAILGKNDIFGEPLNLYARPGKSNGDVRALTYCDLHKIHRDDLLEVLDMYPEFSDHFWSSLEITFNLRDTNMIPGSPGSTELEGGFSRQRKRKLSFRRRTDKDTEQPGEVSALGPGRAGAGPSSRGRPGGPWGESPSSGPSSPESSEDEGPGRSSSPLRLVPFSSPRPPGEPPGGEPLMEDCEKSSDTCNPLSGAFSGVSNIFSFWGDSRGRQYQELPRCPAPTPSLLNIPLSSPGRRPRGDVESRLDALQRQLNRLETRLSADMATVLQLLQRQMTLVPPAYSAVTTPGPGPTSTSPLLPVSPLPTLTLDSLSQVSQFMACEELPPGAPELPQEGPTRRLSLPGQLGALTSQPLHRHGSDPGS

CYP2C9 = CYP2C9 (Homo sapiens, UniProt P11712); assay: Reversible CYP inhibition in human liver microsomes; settings: for activity at 0.01 µM / activity at 0.158 µM / activity at 0.398 µM / activity at 1 µM / activity at 15.8 µM / activity at 39.8 µM / activity at 100 µM: human, microsomes, pH 7.4, Percent of Control Activity
CYP2C9, sequence (P11712 whole entry): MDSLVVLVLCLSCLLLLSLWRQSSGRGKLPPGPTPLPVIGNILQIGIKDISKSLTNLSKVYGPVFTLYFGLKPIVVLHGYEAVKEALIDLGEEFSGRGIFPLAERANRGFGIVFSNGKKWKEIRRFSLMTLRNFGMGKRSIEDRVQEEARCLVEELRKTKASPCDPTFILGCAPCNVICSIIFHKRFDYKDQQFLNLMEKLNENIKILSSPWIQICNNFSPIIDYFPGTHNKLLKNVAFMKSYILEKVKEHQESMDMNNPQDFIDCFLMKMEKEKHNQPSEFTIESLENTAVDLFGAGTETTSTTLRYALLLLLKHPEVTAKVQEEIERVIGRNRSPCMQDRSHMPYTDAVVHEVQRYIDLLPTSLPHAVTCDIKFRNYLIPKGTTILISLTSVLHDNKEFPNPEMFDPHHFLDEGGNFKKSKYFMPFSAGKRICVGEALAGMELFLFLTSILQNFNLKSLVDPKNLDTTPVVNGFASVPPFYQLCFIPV

in vitro = settings: African green monkey, CC50
MDR1/P-gp = MDR1/P-gp (Homo sapiens, UniProt P08183); assay: Transporter inhibition using membrane vesicles; settings: for % PGP Uptake Activity: uptake of N-methyl quinidine by MDR1, single replicates
MDR1/P-gp, sequence (P08183 whole entry): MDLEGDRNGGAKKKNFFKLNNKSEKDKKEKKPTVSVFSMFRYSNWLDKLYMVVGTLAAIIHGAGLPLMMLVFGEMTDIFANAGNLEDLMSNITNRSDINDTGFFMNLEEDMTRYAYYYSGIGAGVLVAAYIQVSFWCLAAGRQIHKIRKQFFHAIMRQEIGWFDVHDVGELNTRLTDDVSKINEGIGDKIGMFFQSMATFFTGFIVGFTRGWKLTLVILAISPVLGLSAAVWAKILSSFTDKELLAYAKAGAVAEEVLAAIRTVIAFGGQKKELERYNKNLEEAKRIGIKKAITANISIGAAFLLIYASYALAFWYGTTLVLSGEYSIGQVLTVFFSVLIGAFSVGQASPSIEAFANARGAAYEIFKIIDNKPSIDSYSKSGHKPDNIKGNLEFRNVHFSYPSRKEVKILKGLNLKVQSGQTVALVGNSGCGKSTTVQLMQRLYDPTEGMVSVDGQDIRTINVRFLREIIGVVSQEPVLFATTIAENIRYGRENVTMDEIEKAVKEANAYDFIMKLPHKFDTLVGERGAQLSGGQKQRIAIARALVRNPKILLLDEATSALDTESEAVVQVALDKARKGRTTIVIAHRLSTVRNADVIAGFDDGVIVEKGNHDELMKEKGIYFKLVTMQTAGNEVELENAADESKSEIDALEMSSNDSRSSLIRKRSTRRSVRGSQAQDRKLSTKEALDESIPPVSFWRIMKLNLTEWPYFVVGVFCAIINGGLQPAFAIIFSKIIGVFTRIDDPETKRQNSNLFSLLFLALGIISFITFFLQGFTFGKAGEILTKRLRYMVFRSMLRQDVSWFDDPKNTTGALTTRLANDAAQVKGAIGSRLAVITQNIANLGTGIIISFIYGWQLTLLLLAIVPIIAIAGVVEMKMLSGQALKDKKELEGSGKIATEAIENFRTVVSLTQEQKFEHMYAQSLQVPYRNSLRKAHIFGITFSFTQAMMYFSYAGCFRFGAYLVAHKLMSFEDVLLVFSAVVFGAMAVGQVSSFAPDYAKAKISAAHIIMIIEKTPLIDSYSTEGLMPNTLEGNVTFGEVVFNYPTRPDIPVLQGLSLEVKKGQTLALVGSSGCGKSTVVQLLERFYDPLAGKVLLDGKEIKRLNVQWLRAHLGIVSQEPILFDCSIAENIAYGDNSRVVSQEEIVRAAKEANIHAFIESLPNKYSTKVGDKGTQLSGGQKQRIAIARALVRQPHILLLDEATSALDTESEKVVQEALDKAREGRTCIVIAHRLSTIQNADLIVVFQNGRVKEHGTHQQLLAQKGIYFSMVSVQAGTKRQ

MRC-5 cells = assay: Cytotoxicity in MRC-5 cells; settings: MRC-5, plus 0.5 uM efflux inhibitor; one value per run date (N=3)
[2] = rat, PF-07304814 prodrug dosed […] intravenous, individual rats, […]

For `COc1cccc2[nH]c(C(=O)N[C@@H](CC(C)C)C(=O)N[C@@H](C[C@@H]3CCNC3=O)C(=O)COP(=O)(O)O)cc12` [PF-07304814], the IC50 (CYP2C8) was over 100 µM, the IC50 (CYP2C8; Amodiaquine N-dealkylation, T30) was over 100 µM and the “Percent of Control Activity” value (CYP2C8; CYP 2C8, 0.01 µM, 30-Minute Preincubation, 0.01 µM) was 100.2%. The “Percent of Control Activity” value (CYP2C8; CYP 2C8, 0.01 µM, Zero-Minute Preincubation, 0.01 µM) was 96.2% and 97.6%, the “Percent of Control Activity” value (CYP2C8; CYP 2C8, 0.158 µM, 30-Minute Preincubation, 0.158 µM) was 96.6% and 95.8% and the “Percent of Control Activity” value (CYP2C8; CYP 2C8, 0.158 µM, Zero-Minute Preincubation, 0.158 µM) was 91.2% and 95.2%. The “Percent of Control Activity” value (CYP2C8; CYP 2C8, 0.398 µM, 30-Minute Preincubation, 0.398 µM) was 95.5% and 95.0%, the “Percent of Control Activity” value (CYP2C8; CYP 2C8, 0.398 µM, Zero-Minute Preincubation, 0.398 µM) was 94.0% and 94.9% and the “Percent of Control Activity” value (CYP2C8; CYP 2C8, 1 µM, 30-Minute Preincubation, 1 µM) was 96.0% and 95.0%. The “Percent of Control Activity” value (CYP2C8; CYP 2C8, 1 µM, Zero-Minute Preincubation, 1 µM) was 93.7%, the “Percent of Control Activity” value (CYP2C8; CYP 2C8, 15.8 µM, 30-Minute Preincubation, 15.8 µM) was 96.2% and 94.8% and the “Percent of Control Activity” value (CYP2C8; CYP 2C8, 15.8 µM, Zero-Minute Preincubation, 15.8 µM) was 94.0% and 95.0%. For the same molecule, the “Percent of Control Activity” value (CYP2C8; CYP 2C8, 39.8 µM, 30-Minute Preincubation, 39.8 µM) was 94.8% and 91.6%, the “Percent of Control Activity” value (CYP2C8; CYP 2C8, 39.8 µM, Zero-Minute Preincubation, 39.8 µM) was 94.6% and the “Percent of Control Activity” value (CYP2C8; CYP 2C8, 100 µM, 30-Minute Preincubation, 100 µM) was 96.4%. The “Percent of Control Activity” value (CYP2C8; CYP 2C8, 100 µM, Zero-Minute Preincubation, 100 µM) was 88.3%, the activity at 0.01 µM (CYP2C8; CYP 2C8, 0.01 µM, 30-Minute Preincubation) was 94.3% and the activity at 0.01 µM (CYP2C8; CYP 2C8, 0.01 µM, Zero-Minute Preincubation) was 95.1%. For the same molecule, the activity at 0.158 µM (CYP2C8; CYP 2C8, 0.158 µM, 30-Minute Preincubation) was 90.5%, the activity at 0.158 µM (CYP2C8; CYP 2C8, 0.158 µM, Zero-Minute Preincubation) was 91.3% and the activity at 0.398 µM (CYP2C8; CYP 2C8, 0.398 µM, 30-Minute Preincubation) was 92.1%. For the same molecule, the activity at 0.398 µM (CYP2C8; CYP 2C8, 0.398 µM, Zero-Minute Preincubation) was 95.4%, the activity at 1 µM (CYP2C8; CYP 2C8, 1 µM, 30-Minute Preincubation) was 91.8% and the activity at 1 µM (CYP2C8; CYP 2C8, 1 µM, Zero-Minute Preincubation) was 92.1%. For the same molecule, the activity at 15.8 µM (CYP2C8; CYP 2C8, 15.8 µM, 30-Minute Preincubation) was 88.9%, the activity at 15.8 µM (CYP2C8; CYP 2C8, 15.8 µM, Zero-Minute Preincubation) was 89.3% and the activity at 39.8 µM (CYP2C8; CYP 2C8, 39.8 µM, 30-Minute Preincubation) was 88.9%. For the same molecule, the activity at 39.8 µM (CYP2C8; CYP 2C8, 39.8 µM, Zero-Minute Preincubation) was 87%, the activity at 100 µM (CYP2C8; CYP 2C8, 100 µM, 30-Minute Preincubation) was 89.5% and the activity at 100 µM (CYP2C8; CYP 2C8, 100 µM, Zero-Minute Preincubation) was 85.6%. The clearance ([1]; male, Wistar-Hannover, rat, plasma, iv, CL, rat IV, PF-07304814 […] (n=2, range), PF-00835231 2mg/kg (n=3, ± SD)) was 11.6 L/h/kg, the half-life ([1]; male, Wistar-Hannover, rat, plasma, iv, Terminal T1/2, rat IV, PF-07304814 […] (n=2, range), PF-00835231 2mg/kg (n=3, ± SD)) was 18 min and the Vd ([1]; male, Wistar-Hannover, rat, plasma, iv, rat IV, PF-07304814 […] (n=2, range), PF-00835231 2mg/kg (n=3, ± SD)) was 0.58 L/kg. For the same molecule, the clearance ([1]; male, Wistar-Hannover, rat, plasma, iv, […], Clearance, Mean Data, PF-07304814 prodrug dosed […] intravenous, mean) was 11.6 L/h/kg, the clearance ([1]; male, Wistar-Hannover, rat, plasma, iv, […], Clearance, PF-07304814 prodrug dosed […] intravenous, individual rats) was 10.1 L/h/kg and the half-life ([1]; male, Wistar-Hannover, rat, plasma, iv, […], Half life, Mean Data, PF-07304814 prodrug dosed […] intravenous, mean) was 18 min. It also gave a half-life ([1]; male, Wistar-Hannover, rat, plasma, iv, […], Half life, PF-07304814 prodrug dosed […] intravenous, individual rats) of 21.6 min, a Vd ([1]; male, Wistar-Hannover, rat, plasma, iv, […], Mean Data, PF-07304814 prodrug dosed […] intravenous, mean) of 0.58 L/kg and a Vd ([1]; male, Wistar-Hannover, rat, plasma, iv, […], PF-07304814 prodrug dosed […] intravenous, individual rats) of 0.567 L/kg. For the same molecule, the “%unchanged in urine” value ([1]; rat IV, PF-07304814 […], PF-00835231 2mg/kg) was under 0.1%, the Half life [1, 2] was 13.8 min and the Vdss [1, 2] was 0.592 L/kg. The clearance [1, 2] was 13.2 L/h/kg, the “hERG margin in reference to projected unbound human Cmax” value (hERG channel; 300 µM vs projected Cmax at projected human efficacious dose) was 1,770 fold and the “concentration up to which hERG current amplitude was not inhibited” value (hERG channel; human) was 300 µM. For the same molecule, the IC50 (CYP2C9) was over 100 µM, the “Percent of Control Activity” value (CYP2C9; CYP 2C9, 0.01 µM, 30-Minute Preincubation, 0.01 µM) was 99.6% and 105.4% and the “Percent of Control Activity” value (CYP2C9; CYP 2C9, 0.01 µM, Zero-Minute Preincubation, 0.01 µM) was 102.7% and 88.8%. The “Percent of Control Activity” value (CYP2C9; CYP 2C9, 0.158 µM, 30-Minute Preincubation, 0.158 µM) was 97.3% and 103.8%, the “Percent of Control Activity” value (CYP2C9; CYP 2C9, 0.158 µM, Zero-Minute Preincubation, 0.158 µM) was 103.7% and 96.2% and the “Percent of Control Activity” value (CYP2C9; CYP 2C9, 0.398 µM, 30-Minute Preincubation, 0.398 µM) was 96.2%. The “Percent of Control Activity” value (CYP2C9; CYP 2C9, 0.398 µM, Zero-Minute Preincubation, 0.398 µM) was 103.2% and 91.4%, the “Percent of Control Activity” value (CYP2C9; CYP 2C9, 1 µM, 30-Minute Preincubation, 1 µM) was 98.0% and 100.0% and the “Percent of Control Activity” value (CYP2C9; CYP 2C9, 1 µM, Zero-Minute Preincubation, 1 µM) was 88.9%. The “Percent of Control Activity” value (CYP2C9; CYP 2C9, 15.8 µM, 30-Minute Preincubation, 15.8 µM) was 97.7% and 102.2%, the “Percent of Control Activity” value (CYP2C9; CYP 2C9, 15.8 µM, Zero-Minute Preincubation, 15.8 µM) was 104.1% and 92.6% and the “Percent of Control Activity” value (CYP2C9; CYP 2C9, 39.8 µM, 30-Minute Preincubation, 39.8 µM) was 98.6% and 102.8%. The “Percent of Control Activity” value (CYP2C9; CYP 2C9, 39.8 µM, Zero-Minute Preincubation, 39.8 µM) was 101.8% and 92.4%, the “Percent of Control Activity” value (CYP2C9; CYP 2C9, 100 µM, 30-Minute Preincubation, 100 µM) was 97.1% and 95.4% and the “Percent of Control Activity” value (CYP2C9; CYP 2C9, 100 µM, Zero-Minute Preincubation, 100 µM) was 91.7%. It also gave an IC50 (CYP2C9; Diclofenac 4′-hydroxylation, T30) of over 100 µM, an activity at 0.01 µM (CYP2C9; CYP 2C9, 0.01 µM, 30-Minute Preincubation) of 100% and an activity at 0.01 µM (CYP2C9; CYP 2C9, 0.01 µM, Zero-Minute Preincubation) of 98.2%. It also gave an activity at 0.158 µM (CYP2C9; CYP 2C9, 0.158 µM, 30-Minute Preincubation) of 98.3%, an activity at 0.158 µM (CYP2C9; CYP 2C9, 0.158 µM, Zero-Minute Preincubation) of 103% and an activity at 0.398 µM (CYP2C9; CYP 2C9, 0.398 µM, 30-Minute Preincubation) of 106%. It also gave an activity at 0.398 µM (CYP2C9; CYP 2C9, 0.398 µM, Zero-Minute Preincubation) of 102%, an activity at 1 µM (CYP2C9; CYP 2C9, 1 µM, 30-Minute Preincubation) of 100% and an activity at 1 µM (CYP2C9; CYP 2C9, 1 µM, Zero-Minute Preincubation) of 100%. The activity at 15.8 µM (CYP2C9; CYP 2C9, 15.8 µM, 30-Minute Preincubation) was 98.8%, the activity at 15.8 µM (CYP2C9; CYP 2C9, 15.8 µM, Zero-Minute Preincubation) was 106% and the activity at 39.8 µM (CYP2C9; CYP 2C9, 39.8 µM, 30-Minute Preincubation) was 101%. The activity at 39.8 µM (CYP2C9; CYP 2C9, 39.8 µM, Zero-Minute Preincubation) was 105%, the activity at 100 µM (CYP2C9; CYP 2C9, 100 µM, 30-Minute Preincubation) was 96.5% and the activity at 100 µM (CYP2C9; CYP 2C9, 100 µM, Zero-Minute Preincubation) was 101%. The CC50 (in vitro) was over 100 µM, the IC50 (MDR1/P-gp; IC50, N-methyl quinidine (0.2 µM)) was over 300 µM and the “% PGP Uptake Activity” value (MDR1/P-gp; inhibitor concentration 0.0732 uM) was 123.862% and 96.8629% and 149.319%. The “% PGP Uptake Activity” value (MDR1/P-gp; inhibitor concentration 0.2930 uM) was 106.737% and 95.0116% and 107.663%, the “% PGP Uptake Activity” value (MDR1/P-gp; inhibitor concentration 1.1719 uM) was 108.588% and 115.068% and 109.514% and the “% PGP Uptake Activity” value (MDR1/P-gp; inhibitor concentration 4.6875 uM) was 120.159% and 118.308% and 119.234%. The “% PGP Uptake Activity” value (MDR1/P-gp; inhibitor concentration 18.7500 uM) was 122.011% and 113.68% and 118.308%, the “% PGP Uptake Activity” value (MDR1/P-gp; inhibitor concentration 300.0000 uM) was 73.875% and 64.7724% and 99.64% and the solubility at 48 h (Solubility measurement; deionized water and pH buffers) was over 200 mg/mL. For the same molecule, the solubility at 48 h (Solubility measurement; deionized water and pH buffers (aqueous)) was 200 mg/mL (≈ 362 mM) and the CC50 (MRC-5 cells) was over 100 µM.
